{"source": "patent US10481149B2", "origin": "cited, not measured here", "test_system": "elimination transporters", "conditions": "sandwich-cultured rat hepatocytes; cited from earlier work"}
{"smiles": "COc1ccc(Cl)cc1C(=O)NCCc1ccc(S(=O)(=O)NC(=O)NC2CCCCC2)cc1", "note": "[glibenclamide]", "values": [{"measurement": "interference with rosuvastatin elimination", "result": 29.3, "unit": "%"}]}
